For 52 molecules, IC50 results are on record in patent US11274090B2, “P300/CBP HAT inhibitors” (Constellation Pharmaceuticals, Inc., priority 2018, dated 2022).

Sequence of p300 HAT domain (residues 1287-1666) (Q09472 1287-1666): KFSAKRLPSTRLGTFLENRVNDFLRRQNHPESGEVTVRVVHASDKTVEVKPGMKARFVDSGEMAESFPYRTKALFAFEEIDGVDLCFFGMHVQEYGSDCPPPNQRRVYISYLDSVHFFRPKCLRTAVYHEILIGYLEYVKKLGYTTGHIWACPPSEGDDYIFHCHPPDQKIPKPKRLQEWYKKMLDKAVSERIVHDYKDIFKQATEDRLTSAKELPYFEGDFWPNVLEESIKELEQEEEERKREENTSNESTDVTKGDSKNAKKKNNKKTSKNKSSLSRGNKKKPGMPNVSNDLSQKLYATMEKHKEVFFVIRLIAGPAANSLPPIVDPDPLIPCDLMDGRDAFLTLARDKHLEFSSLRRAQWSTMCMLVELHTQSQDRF

The target of the assay is p300 HAT domain (residues 1287-1666) (Homo sapiens (Human), UniProt Q09472). The experiment in a line: p300 HAT SPA assay (scintillation proximity assay, acetylation of biotinylated H3(1-21) peptide). The assay is classed as biochemical. The settings on record: average of at least 2 replicate titrations. On the procedure:
In a typical experiment the p300 HAT inhibitory activity of the compounds described herein was determined in accordance with the following experimental method.
The expressed protein was purified by Ni2+ affinity, followed by anion exchange chromatography. Appropriate fractions were pooled and buffer exchanged into 20 mM Hepes pH 7.5, 150 mM NaCl, and 1 mM TCEP.
35 μL of the reaction volume was transferred to a 384-well streptavidin FlashPlate (PerkinElmer) using a Bravo liquid handler (Velocity 11) and incubated for 1.5 hr at RT. […] Data were analyzed in Genedata to determine inhibitor IC50 values.
Molecule `Cc1nc(NC(=O)C(NCC(C)c2ccc(C#N)cc2)c2ccccc2)ccc1-c1cnn(C)c1` (single isomer, unassigned) [39 Isomer 3] came in with an IC50 of 17.7 nM.

`Cc1nc(NC(=O)C(NCC(C)c2ccc(C#N)cc2)c2ccccc2)ccc1-c1cnn(C)c1` (single isomer, unassigned) [39 Isomer 4] returned an IC50 of 304 nM. Against the preceding molecule, the IC50 is about 17-fold higher. Consider `N#Cc1ccc(CCNC(C(=O)Nc2ccc(N3CCN(CC(F)(F)F)CC3)cn2)c2ccccc2)cc1` (single isomer, unassigned) [40 Isomer 1], for which the midpoint of inhibition, the IC50, lay at 190 nM. In the case of `N#Cc1ccc(CCNC(C(=O)Nc2ccc(N3CCN(CC(F)(F)F)CC3)cn2)c2ccccc2)cc1` (single isomer, unassigned) [40 Isomer 2] it was above 5000 nM.

With `Cc1cc(C#N)ccc1CCNC(C(=O)Nc1ccc(-c2cnn(C)c2)cn1)c1ccccc1` (single isomer, unassigned) [41 Isomer 1], the IC50 was 10.3 nM. In turn, `Cc1cc(C#N)ccc1CCNC(C(=O)Nc1ccc(-c2cnn(C)c2)cn1)c1ccccc1` (single isomer, unassigned) [41 Isomer 2] returned an IC50 of 1790 nM. In the case of `N#Cc1ccc(CCNC(C(=O)Nc2ccc(C3CC3)cn2)c2ccccc2)cc1` (single isomer, unassigned) [42 Isomer 2] it was 3000 nM; in that of `Cn1cc(-c2cnc(NC(=O)C(NCCc3ccc(C#N)cc3)c3ccccc3)c(Cl)c2)cn1` (single isomer, unassigned) [43 Isomer 1], 185 nM; in that of `Cn1cc(-c2cnc(NC(=O)C(NCCc3ccc(C#N)cc3)c3ccccc3)c(Cl)c2)cn1` (single isomer, unassigned) [43 Isomer 2], above 5000 nM. The molecule `N#Cc1ccc(CCNC(C(=O)Nc2ccc(C3CCC3)cn2)c2ccccc2)cc1` (single isomer, unassigned) [46 Isomer 1] gave an IC50 above 5000 nM. With `N#Cc1ccc(CCNC(C(=O)Nc2ccc(C3CCC3)cn2)c2ccccc2)cc1` (single isomer, unassigned) [46 Isomer 2], the IC50 came out at 486 nM. Regarding `CC(CNC(C(=O)Nc1ccc(-c2cnn(C(C)(C)C#N)c2)cn1)c1ccccc1)c1ccc(C#N)cc1` (single isomer, unassigned) [47 Isomer 1], the IC50 turned out to be 448 nM. In the case of `CC(CNC(C(=O)Nc1ccc(-c2cnn(C(C)(C)C#N)c2)cn1)c1ccccc1)c1ccc(C#N)cc1` (single isomer, unassigned) [47 Isomer 2] it was 24.2 nM; in that of `CC(CNC(C(=O)Nc1ccc(-c2cnn(C(C)(C)C#N)c2)cn1)c1ccccc1)c1ccc(C#N)cc1` (single isomer, unassigned) [47 Isomer 3], above 2000 nM; in that of `CC(CNC(C(=O)Nc1ccc(-c2cnn(C(C)(C)C#N)c2)cn1)c1ccccc1)c1ccc(C#N)cc1` (single isomer, unassigned) [47 Isomer 4], 425 nM. As to `CN1CCN(c2ccc(NC(=O)C(NCCc3ccc(C#N)cc3)c3ccccc3)nc2)CC1` (single isomer, unassigned) [49 Isomer 2], the IC50 is above 5000 nM. Molecule `N#Cc1ccc(CCNC(C(=O)Nc2ccn(-c3ccccc3)n2)c2ccccc2)cc1` (single isomer, unassigned) [50 Isomer 1] registered an IC50 of 279 nM. Molecule `N#Cc1ccc(CCNC(C(=O)Nc2ccn(-c3ccccc3)n2)c2ccccc2)cc1` (single isomer, unassigned) [50 Isomer 2] displayed an IC50 above 5000 nM. In the case of `Cn1cc(-c2ccc(NC(=O)C(NCCc3ccc(C#N)cc3Cl)c3ccccc3)nc2)cn1` (single isomer, unassigned) [51 Isomer 2] it was 237 nM; in that of `CC(CNC(C(=O)Nc1ccc(-c2cnn(C3CCC3)c2)cn1)c1ccccc1)c1ccc(C#N)cc1` (single isomer, unassigned) [52 Isomer 1], 612 nM.

As to `CC(CNC(C(=O)Nc1ccc(-c2cnn(C3CCC3)c2)cn1)c1ccccc1)c1ccc(C#N)cc1` (single isomer, unassigned) [52 Isomer 2], the IC50 is above 2000 nM. In the case of `CC(CNC(C(=O)Nc1ccc(-c2cnn(C3CCC3)c2)cn1)c1ccccc1)c1ccc(C#N)cc1` (single isomer, unassigned) [52 Isomer 3] it was 31.1 nM; in that of `CC(CNC(C(=O)Nc1ccc(-c2cnn(C3CCC3)c2)cn1)c1ccccc1)c1ccc(C#N)cc1` (single isomer, unassigned) [52 Isomer 4], above 2000 nM.

The molecule `CC(CNC(C(=O)Nc1ccc(-c2cnn(C(C)(C)C)c2)cn1)c1ccccc1)c1ccc(C#N)cc1` (single isomer, unassigned) [54 Isomer 1] displayed an IC50 of 383 nM.

Regarding `CC(CNC(C(=O)Nc1ccc(-c2cnn(C(C)(C)C)c2)cn1)c1ccccc1)c1ccc(C#N)cc1` (single isomer, unassigned) [54 Isomer 2], the IC50 is 23.9 nM.

With `CC(CNC(C(=O)Nc1ccc(-c2cnn(C(C)(C)C)c2)cn1)c1ccccc1)c1ccc(C#N)cc1` (single isomer, unassigned) [54 Isomer 3], the IC50 is above 2000 nM. The molecule `CC(CNC(C(=O)Nc1ccc(-c2cnn(C(C)(C)C)c2)cn1)c1ccccc1)c1ccc(C#N)cc1` (single isomer, unassigned) [54 Isomer 4] showed an IC50 of 1970 nM. For the molecule `Cn1cc(-c2ccc(NC(=O)C(NCCc3ccc(Cl)cc3)c3ccccc3)nc2)cn1` (single isomer, unassigned) [55 Isomer 2], the IC50 is above 5000 nM. `Cn1cc(-c2cnc(NC(=O)C(NCCc3ccc(C#N)cc3)c3ccccc3)cn2)cn1` (single isomer, unassigned) [56 Isomer 2] had an IC50 above 5000 nM. Then `Cn1cc(-c2ccc(NC(=O)C(NCCc3ccc(C#N)cc3)c3ccccc3)nn2)cn1` (single isomer, unassigned) [57 Isomer 1], with 815 nM; and `Cn1cc(-c2ccc(NC(=O)C(NCCc3ccc(C#N)cc3)c3ccccc3)nn2)cn1` (single isomer, unassigned) [57 Isomer 2], with above 5000 nM. Then `Cn1cc(-c2ccc(NC(=O)C(NCCc3ccc(F)cc3)c3ccccc3)nc2)cn1` (single isomer, unassigned) [58 Isomer 2], with above 5000 nM; and `CC(CNC(C(=O)Nc1ccc(-n2cnc(C(C)(C)C)c2)cn1)c1ccccc1)c1ccc(C#N)cc1` (single isomer, unassigned) [59 Isomer 1], with 1500 nM. Take `CC(CNC(C(=O)Nc1ccc(-n2cnc(C(C)(C)C)c2)cn1)c1ccccc1)c1ccc(C#N)cc1` (single isomer, unassigned) [59 Isomer 2]: the IC50 was above 2000 nM. Then `CC(CNC(C(=O)Nc1ccc(-n2cnc(C(C)(C)C)c2)cn1)c1ccccc1)c1ccc(C#N)cc1` (single isomer, unassigned) [59 Isomer 3], with above 2000 nM; and `CC(CNC(C(=O)Nc1ccc(-n2cnc(C(C)(C)C)c2)cn1)c1ccccc1)c1ccc(C#N)cc1` (single isomer, unassigned) [59 Isomer 4], with 39.3 nM. In turn, `Cc1nnc2n1CCN(c1ccc(NC(=O)C(NCCc3ccc(C#N)cc3)c3ccccc3)nc1)C2` (single isomer, unassigned) [60 Isomer 1] showed an IC50 of 32.5 nM. Take `Cc1nnc2n1CCN(c1ccc(NC(=O)C(NCCc3ccc(C#N)cc3)c3ccccc3)nc1)C2` (single isomer, unassigned) [60 Isomer 2]: the IC50 was above 2000 nM. Then `COc1ccc(C(NCCc2ccc(C#N)cc2)C(=O)Nc2ccc(-c3cnn(C)c3)cn2)cc1` (single isomer, unassigned) [63 Isomer 1], with 86 nM; and `COc1ccc(C(NCCc2ccc(C#N)cc2)C(=O)Nc2ccc(-c3cnn(C)c3)cn2)cc1` (single isomer, unassigned) [63 Isomer 2], with above 2000 nM; and `CCN(CC)C(=O)C1CCN(c2ccc(NC(=O)C(NCCc3ccc(C#N)cc3)c3ccccc3)nc2)CC1` (single isomer, unassigned) [64 Isomer 1], with above 2000 nM. As to `CCN(CC)C(=O)C1CCN(c2ccc(NC(=O)C(NCCc3ccc(C#N)cc3)c3ccccc3)nc2)CC1` (single isomer, unassigned) [64 Isomer 2], the IC50 came out at 568 nM.

`CC1(C)CCN(c2ccc(NC(=O)C(NCCc3ccc(C#N)cc3)c3ccccc3)nc2)CC1` (single isomer, unassigned) [65 Isomer 1] gave an IC50 of 477 nM. Regarding `CC1(C)CCN(c2ccc(NC(=O)C(NCCc3ccc(C#N)cc3)c3ccccc3)nc2)CC1` (single isomer, unassigned) [65 Isomer 2], the IC50 is above 5000 nM. Molecule `COC1CCN(c2ccc(NC(=O)C(NCCc3ccc(C#N)cc3)c3ccccc3)nc2)CC1` (single isomer, unassigned) [66 Isomer 1] showed an IC50 of 144 nM. The molecule `COC1CCN(c2ccc(NC(=O)C(NCCc3ccc(C#N)cc3)c3ccccc3)nc2)CC1` (single isomer, unassigned) [66 Isomer 2] returned a half-maximal inhibitory concentration (IC50) above 5000 nM. `Cn1cc(-c2ccc(NC(=O)C(NCCc3ccc(C#N)cc3)c3ccc(Cl)cc3)nc2)cn1` (single isomer, unassigned) [67 Isomer 1] showed an IC50 above 2000 nM.

With `Cn1cc(-c2ccc(NC(=O)C(NCCc3ccc(C#N)cc3)c3ccc(Cl)cc3)nc2)cn1` (single isomer, unassigned) [67 Isomer 2], the IC50 was found to be 216 nM. In other words, the sub-micromolar range. With `CS(=O)(=O)N1CCN(c2ccc(NC(=O)C(NCCc3ccc(C#N)cc3)c3ccccc3)nc2)CC1` (single isomer, unassigned) [68 Isomer 1], the IC50 was above 2000 nM. `CN1CCN(c2ccc(NC(=O)C(NCCc3ccc(Cl)cc3)c3ccccc3)nc2)CC1` (single isomer, unassigned) [69 Isomer 1]: inhibition was half-maximal at 35.8 nM (IC50). For the molecule `CN1CCN(c2ccc(NC(=O)C(NCCc3ccc(Cl)cc3)c3ccccc3)nc2)CC1` (single isomer, unassigned) [69 Isomer 2], the IC50 was above 2000 nM.

`COc1cccc(C(NCCc2ccc(C#N)cc2)C(=O)Nc2ccc(-c3cnn(C)c3)cn2)c1` (single isomer, unassigned) [70 Isomer 1] yielded an IC50 above 2000 nM.

As a reminder, the IC50 is the concentration at which inhibition is half-maximal. Low readings indicate greater potency in that assay, high ones weaker potency in that assay.
